Assay in all cases: growth of human tumour cells (NCI), 48 h
The test system of test [1] is MDA-MB-435.
The subject of test [2] is RPMI-8226 leukemia.
Test [3] has as its system SK-OV-3 ovarian.
In test [4] the test system is K-562 leukemia.
Test [5] has as its system LOX IMVI melanoma.
For test [6], the system named is OVCAR-5 ovarian.
Test [7] deals with UACC-257 melanoma.
Test [8] deals with EKVX NSCLC.
Test [9] concerns MDA-MB-231 breast.
In test [10] the test system is SNB-19 CNS.

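Test compounds were applied to cells in 96-well plates for 48 hours at 5 doses. GI50: concentration for 50% inhibition of growth. At the TGI there is no net growth.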 Some results are limits rather than exact numbers.

In the case of `CCOC(=O)C(NCc1cccc(C(F)(F)F)c1)(NC(=O)c1ccccc1)C(F)(F)F` (centres undefined), the TGI in test [1] was 79 µM; in [2] it was 94.6 µM; in test [3], more than 100 µM; in test [4] it was more than 100 µM; in [5] it was 48.3 µM; in [6], more than 100 µM. Also, the TGI is 68.7 µM in test [7], 83.9 µM in test [8], 29.9 µM in test [9] and more than 100 µM in test [10].

For `Cc1c(F)c(N)c2c(=O)cc(-c3ccc(NC(=O)C(N)CCCN=C(N)N)c(F)c3)oc2c1F` (centres undefined), the TGI in test [1] was more than 83.6 µM; in test [2], more than 100 µM; in test [3], more than 68.2 µM; in test [4], more than 100 µM; in [5], more than 100 µM; in test [6] it was more than 50 µM. Further, the TGI in test [7] was 7.41 µM; in [8], more than 100 µM; in test [9], more than 59.6 µM; in [10], more than 100 µM.

Consider `OCC(O)C(O)C(O)C(/C=N\Nc1ncnc2ccc(Br)cc12)=N/Nc1ncnc2ccc(Br)cc12` (centres undefined), for which the TGI in [1], in test [2], in [3], in test [4], in test [5] and in test [6] was more than 100 µM each time. For the same molecule, the TGI in [7], in [8], in test [9] and in test [10] was more than 100 µM each time.

With `CS(=O)(=O)O.[Ag]`, the TGI in [1] worked out at 9.78 µM; in test [2] it was 6.29 µM; in test [3] it was 36.4 µM; in test [4], 4.96 µM; in test [5], 73.9 µM; in [6] it was 35 µM. Also, the TGI in test [7] worked out at 24.4 µM; in test [8] it was 38.4 µM; in test [9], 41 µM; in [10], 78.7 µM.

Take `COc1ccc2c(c1)-c1nn(CCN(C)C)c3ccc(C(=O)NCCCN(C)CCCNC(=O)c4ccc5c6c(nn5CCN(C)C)-c5cc(OC)ccc5Nc46)c(c13)N2`: the TGI turned out to be 0.262 µM in test [1]; 0.0768 µM in test [2]; 3.18 µM in test [3]; 1.14 µM in test [4]; 0.898 µM in [5]; 1.66 µM in test [6]. For the same molecule, the TGI in test [7] is 0.614 µM; in [8], 1.68 µM; in test [9] it was 0.689 µM; in test [10], 1.04 µM.

Turning to `CCOC(=O)N(C)C1(c2ccccc2)CCN(CCCC(=O)c2ccc(F)cc2)CC1`, the TGI is 53.6 µM in test [1]; 63.8 µM in test [2]; more than 100 µM in test [3]; 72.7 µM in test [4]; 42.3 µM in [5]; more than 100 µM in [6]. Moreover, the TGI was 38.2 µM in test [7], more than 100 µM in test [8], more than 100 µM in test [9] and 0.835 µM in [10].

In the case of `CN(c1ccccc1Cl)S(=O)(=O)c1ccccc1[N+](=O)[O-]`, the TGI in [1], in test [2], in [3], in test [4], in test [5] and in test [6] was more than 100 µM each time. Also, the TGI in test [7], in test [8], in [9] and in test [10] was more than 100 µM in each case.

As to `COc1ccc(C2(C3c4cc(OC)c(OC)cc4CCN3C)SCCCS2)cc1O` (centres undefined), the TGI in [1], in [2], in test [3], in test [4], in test [5] and in test [6] was more than 100 µM throughout. In addition, the TGI in test [7], in test [8], in test [9] and in [10] was more than 100 µM in each case.

As for `CC(C)(C)c1cc(C2COC(=O)COCC(=O)OCCOCCOCCO2)cc(C(C)(C)C)c1O` (centres undefined), the TGI in test [1] is 43 µM; in test [2], more than 100 µM; in [3], 55.9 µM; in test [4], more than 100 µM; in test [5] it was more than 80.2 µM; in [6], more than 100 µM. The TGI in test [7], in [8], in [9] and in test [10] was more than 100 µM throughout.

For `O=C(Nc1cccc(-n2ccc3c(NC(=O)c4ccccc4)nccc32)c1)c1cc(N2CCOCC2)cc(C(F)(F)F)c1`, the GI50 was 0.0253 µM in test [1]; 0.223 µM in test [2]; 0.142 µM in [3]; 0.0506 µM in [4]; 0.0912 µM in test [5]; 0.696 µM in test [6]. The GI50 is 0.109 µM in [7], 0.802 µM in test [8], 0.245 µM in test [9] and 0.379 µM in test [10]. In addition, the TGI in [1] is 0.0688 µM; in test [3], more than 100 µM; in test [4], more than 100 µM; in [5], more than 100 µM; in test [6], more than 100 µM; in test [7], more than 100 µM. The TGI was more than 100 µM in test [8], 0.651 µM in test [9] and more than 100 µM in [10].

As for `CC(C)(C)OC(=O)NCC(=O)N1CCCN(C(=O)CNC(=O)OC(C)(C)C)CC1`, the TGI in test [1], in test [2], in [3], in test [4], in test [5] and in test [6] was more than 100 µM in each case. In addition, the TGI in [7], in test [8], in test [9] and in test [10] was more than 100 µM throughout.

Source of the values: PubChem BioAssay (NCI).
